Laboratory results published in patent US10308660B2, “Compounds and compositions for inhibiting the activity of SHP2” (Novartis AG, priority 2015, dated 2019).

Target: SHP2 (Homo sapiens (Human), UniProt Q06124)
Test: SHP2 allosteric inhibition assay (DiFMUP prompt fluorescence)
Type: biochemical
Conditions: 0.5 nM SHP2 activated with 0.5 μM peptide IRS1_pY1172(dPEG8)pY1222; substrate DiFMUP; 25° C.

IC50 [µM] | SMILES
0.047 | C[C@@H]1CC2(CCN(c3nc(N)c(Sc4ccnc(N)c4Cl)c(=O)n3C)CC2)[C@@H](N)[C@H]1F (single isomer, unassigned) [Example 37]
0.03 | C[C@@H]1CC2(CCN(c3nc(N)c(Sc4ccnc(N)c4Cl)c(=O)n3C)CC2)[C@H](N)[C@@H]1F (single isomer, unassigned) [Example 38]
0.856 | C[C@H]1CC2(CCN(c3nc(N)c(Sc4cccnc4C(F)(F)F)c(=O)n3C)CC2)[C@@H](N)[C@@H]1C(F)(F)F (single isomer, unassigned) [Example 64]
0.061 | C[C@H]1CC2(CCN(c3nc(N)c(Sc4cccnc4C(F)(F)F)c(=O)n3C)CC2)[C@H](N)[C@@H]1C(F)(F)F (single isomer, unassigned) [Example 65]
0.044 | C[C@@H]1OCC2(CCN(c3nc(N)c(Sc4ccnc(N)c4Cl)c(=O)n3C)CC2)[C@@H]1N [Example 3]
0.053 | Cn1c(N2CCC(C)(CN)CC2)nc(N)c(Sc2ccnc(N)c2Cl)c1=O [Example 4]
2.21 | Cn1c(N2CCC(C)(CN)CC2)nc(N)c(Sc2cccc(Cl)c2)c1=O [Example 5]
0.286 | Cn1c(N2CCC(C)(CN)CC2)nc(N)c(Sc2ccccc2Cl)c1=O [Example 6]
0.109 | Cn1c(N2CCC(C)(CN)CC2)nc(N)c(Sc2cccnc2C(F)(F)F)c1=O [Example 7]
0.232 | Cn1c(N2CCC(C)(CN)CC2)nc(N)c(Sc2cccc(N)c2Cl)c1=O [Example 8]
0.047 | COc1cccc(Sc2c(N)nc(N3CCC(C)(CN)CC3)n(C)c2=O)c1Cl [Example 9]
5.63 | Cn1c(N2CCC(C)(CN)CC2)nc(N)c(Sc2cccc(C#N)c2)c1=O [Example 10]
0.441 | Cn1c(N2CCC(C)(CN)CC2)nc(N)c(Sc2cccc(OC(F)(F)F)c2)c1=O [Example 11]
0.039 | Cn1c(N2CCC3(CCC[C@H]3N)CC2)nc(N)c(Sc2cccc(Cl)c2Cl)c1=O [Example 13]
0.098 | Cn1c(N2CCC3(CCC[C@H]3N)CC2)nc(N)c(Sc2cccnc2C(F)(F)F)c1=O [Example 14]
0.022 | Cn1c(N2CCC3(CC2)COC[C@H]3N)nc(N)c(Sc2ccnc(N)c2Cl)c1=O [Example 16]
0.014 | C[C@@H]1OCC2(CCN(c3nc(N)c(Sc4cc(N)nc(Cl)c4Cl)c(=O)n3C)CC2)[C@@H]1N [Example 19]
0.017 | COc1cccc(Sc2c(N)nc(N3CCC4(CC3)CO[C@@H](C)[C@H]4N)n(C)c2=O)c1Cl [Example 20]
0.028 | C[C@H]1C[C@@H](N)C2(CCN(c3nc(N)c(Sc4ccnc(N)c4Cl)c(=O)n3C)CC2)C1 [Example 21]
0.108 | C[C@@H]1OCC2(CCN(c3nc(N)c(Sc4cccnc4OC(F)(F)F)c(=O)n3C)CC2)[C@@H]1N [Example 22]
0.023 | COc1nccc(Sc2c(N)nc(N3CCC4(CC3)CO[C@@H](C)[C@H]4N)n(C)c2=O)c1Cl [Example 23]
0.299 | Cn1c(N2CCC(C)(CN)CC2)nc(N)c(Sc2cccc3ncccc23)c1=O [Example 24]
0.038 | C[C@@H]1OCC2(CCN(c3nc(N)c(Sc4cccc(N)c4Cl)c(=O)n3C)CC2)[C@@H]1N [Example 25]
0.082 | C[C@@H]1OCC2(CCN(c3nc(N)c(Sc4ccccc4)c(=O)n3C)CC2)[C@@H]1N [Example 26]
0.025 | C[C@@H]1OCC2(CCN(c3nc(N)c(Sc4ccccc4Cl)c(=O)n3C)CC2)[C@@H]1N [Example 27]

IC50 [µM] | SMILES
0.028 | C[C@@H]1OCC2(CCN(c3nc(N)c(Sc4ccnc(N5CCCC5)c4Cl)c(=O)n3C)CC2)[C@@H]1N [Example 28]
0.032 | CCOc1nccc(Sc2c(N)nc(N3CCC4(CC3)CO[C@@H](C)[C@H]4N)n(C)c2=O)c1Cl [Example 30]
0.02 | C[C@@H]1OCC2(CCN(c3nc(N)c(Sc4cccc(N)c4C(F)(F)F)c(=O)n3C)CC2)[C@@H]1N [Example 31]
0.04 | C[C@@H]1CC2(CCN(c3nc(N)c(Sc4cccnc4C(F)(F)F)c(=O)n3C)CC2)[C@H](N)C1(F)F [Example 33]
0.057 | C[C@@H]1CC2(CCN(c3nc(N)c(Sc4ccnc(N)c4Cl)c(=O)n3C)CC2)[C@H](N)C1(F)F [Example 34]
0.024 | Cn1c(N2CCC3(CC2)C[C@H](F)C[C@H]3N)nc(N)c(Sc2cccnc2C(F)(F)F)c1=O [Example 35]
0.069 | Cn1c(N2CCC3(CC2)C[C@H](F)C[C@H]3N)nc(N)c(Sc2ccnc(N)c2Cl)c1=O [Example 36]
0.014 | Cn1c(N2CCC3(CC2)CC(F)(F)C[C@H]3N)nc(N)c(Sc2ccnc(N)c2Cl)c1=O [Example 42]
0.018 | Cn1c(N2CCC3(CC2)CC(F)(F)C[C@H]3N)nc(N)c(Sc2cccnc2C(F)(F)F)c1=O [Example 43]
0.137 | Cn1c(N2CCC(C)(CN)CC2)nc(N)c(Sc2ccccc2Br)c1=O [Example 45]
0.089 | Cn1c(N2CCC(C)(CN)CC2)nc(N)c(Sc2ccccc2OC(F)(F)F)c1=O [Example 46]
0.206 | COc1ccccc1Sc1c(N)nc(N2CCC(C)(CN)CC2)n(C)c1=O [Example 47]
0.3 | Cn1c(N2CCC(C)(CN)CC2)nc(N)c(Sc2ccccc2[N+](=O)[O-])c1=O [Example 48]
0.074 | Cn1c(N2CCC(C)(CN)CC2)nc(N)c(Sc2ccccc2C(F)(F)F)c1=O [Example 49]
0.152 | Cn1c(N2CCC(C)(CN)CC2)nc(N)c(Sc2cccc3c2OC(F)(F)O3)c1=O [Example 50]
0.391 | Cn1c(N2CCC(C)(CN)CC2)nc(N)c(Sc2ccccc2C#N)c1=O [Example 51]
0.721 | Cn1c(N2CCC(C)(CN)CC2)nc(N)c(Sc2ccccc2O)c1=O [Example 52]
0.609 | Cn1c(N2CCC(C)(CN)CC2)nc(N)c(Sc2ccc(N)cc2Cl)c1=O [Example 53]
0.2 | Cc1ccccc1Sc1c(N)nc(N2CCC(C)(CN)CC2)n(C)c1=O [Example 54]
0.045 | Cn1c(N2CCC(C)(CN)CC2)nc(N)c(Sc2cccc3ccccc23)c1=O [Example 55]
0.17 | Cn1c(N2CCC(C)(CN)CC2)nc(N)c(Sc2ccc(Cl)cc2Cl)c1=O [Example 56]
0.279 | Cn1c(N2CCC(C)(CN)CC2)nc(N)c(Sc2cccc3cccnc23)c1=O [Example 57]
0.043 | C[C@@H]1OCC2(CCN(c3nc(N)c(Sc4ccnc(C(F)(F)F)c4Cl)c(=O)n3C)CC2)[C@@H]1N [Example 59]
0.016 | C[C@H]1C[C@@H](N)C2(CCN(c3nc(N)c(Sc4cccc(N)c4Cl)c(=O)n3C)CC2)C1 [Example 60]
0.093 | C[C@@H]1OCC2(CCN(c3nc(N)c(Sc4ccncc4C(F)(F)F)c(=O)n3C)CC2)[C@@H]1N [Example 61]

IC50 [µM] | SMILES
0.025 | C[C@H]1C[C@@H](N)C2(CCN(c3nc(N)c(Sc4ccnc(N5CCCC5)c4Cl)c(=O)n3C)CC2)C1 [Example 62]
0.034 | Cn1c(N2CCC3(CC2)COC[C@H]3N)nc(N)c(Sc2cccnc2C(F)(F)F)c1=O [Example 63]
0.02 | C[C@H]1C[C@@H](N)C2(CCN(c3nc(N)c(Sc4cccnc4Cl)c(=O)n3C)CC2)C1 [Example 66]
0.01 | C[C@H]1C[C@@H](N)C2(CCN(c3nc(N)c(Sc4cc(N)cnc4Cl)c(=O)n3C)CC2)C1 [Example 68]
0.01 | C[C@H]1C[C@@H](N)C2(CCN(c3nc(N)c(Sc4cc(N)ccc4Cl)c(=O)n3C)CC2)C1 [Example 69]
0.011 | C[C@H]1C[C@@H](N)C2(CCN(c3nc(N)c(Sc4cc(N)nc(Cl)c4Cl)c(=O)n3C)CC2)C1 [Example 70]
0.033 | Cn1c(N2CCC3(CC2)COC[C@H]3N)nc(N)c(Sc2cccc(Cl)c2Cl)c1=O [Example 72]
0.071 | C[C@H]1C[C@@H](N)C2(CCN(c3nc(N)c(Sc4ccnc(Cl)c4C(F)(F)F)c(=O)n3C)CC2)C1 [Example 73]
0.018 | C[C@H]1C[C@@H](N)C2(CCN(c3nc(N)c(Sc4ccncc4C(F)(F)F)c(=O)n3C)CC2)C1 [Example 75]
0.027 | C[C@H]1C[C@@H](N)C2(CCN(c3nc(N)c(Sc4ccncc4Cl)c(=O)n3C)CC2)C1 [Example 76]
0.039 | COc1nccc(Sc2c(N)nc(N3CCC4(CC3)C[C@@H](C)C[C@H]4N)n(C)c2=O)c1Cl [Example 77]
0.012 | C[C@@H]1OCC2(CCN(c3nc(N)c(Sc4cccc5c4OCO5)c(=O)n3C)CC2)[C@@H]1N [Example 78]
0.37 | COc1ccc(Sc2c(N)nc(N3CCC4(CC3)CO[C@@H](C)[C@H]4N)n(C)c2=O)cc1F [Example 79]
0.068 | Cc1ncccc1Sc1c(N)nc(N2CCC3(CC2)CO[C@@H](C)[C@H]3N)n(C)c1=O [Example 80]
0.015 | C[C@@H]1OCC2(CCN(c3nc(N)c(Sc4ccc(F)cc4Cl)c(=O)n3C)CC2)[C@@H]1N [Example 81]
0.025 | Cn1c(N2CCC3(CC2)CC(F)(F)C[C@H]3N)nc(N)c(Sc2ccc(F)cc2Cl)c1=O [Example 82]
0.056 | Cn1c(N2CCC3(CC2)C[C@H](C(F)(F)F)C[C@H]3N)nc(N)c(Sc2cccnc2C(F)(F)F)c1=O [Example 83]
0.072 | Cn1c(N2CCC3(CC2)C[C@@H](C(F)(F)F)C[C@H]3N)nc(N)c(Sc2cccnc2C(F)(F)F)c1=O [Example 84]
0.077 | Cn1c(N2CCC3(CC2)CC(F)(F)C[C@H]3N)nc(N)c(Sc2ccccc2Cl)c1=O [Example 85]
0.022 | CC[C@@H]1OCC2(CCN(c3nc(N)c(Sc4ccnc(C)c4Cl)c(=O)n3C)CC2)[C@@H]1N [Example 86]
0.021 | CC[C@@H]1OCC2(CCN(c3nc(N)c(Sc4cccnc4C(F)(F)F)c(=O)n3C)CC2)[C@@H]1N [Example 87]
0.042 | C[C@@H]1OCC2(CCN(c3cc(N)c(Sc4cccnc4C(F)(F)F)c(=O)[nH]3)CC2)[C@@H]1N [Example 88, 4-amino-6-((3S,4S)-4-amino-3-methyl-2-oxa-8-azaspiro[4.5]decan-8-yl)-3-((2-(trifluoromethyl)pyridin-3-yl)thio)pyridin-2(1H)-one]
0.066 | CC1(CN)CCN(c2nc(N)c(Sc3cccnc3C(F)(F)F)c(=O)[nH]2)CC1 [Example 90, 6-amino-2-(4-(aminomethyl)-4-methylpiperidin-1-yl)-5-((2-(trifluoromethyl)pyridin-3-yl)thio)pyrimidin-4(3H)-one]
